Where a SMILES comes first, the peptide text is derived from it. [ ]: non-standard residue; d: D form. The star is where a group is joined. Palmitoyl = CCCCCCCCCCCCCCCC(=O)*; Dap = NC[C@H](N)C(=O)O

For one data set, the system named is LA-N-5 cells. The experiment in a line: DNA fragmentation assay (Hoechst 33285). Format: cell-based, human. Particulars: LY-294002 30 μM, C2 ceramide 25 μM. Here is the method: Quantification of DNA fragments was performed as described previously (Dawson et al., 1997). Briefly, cells were lysed in 5 mM Tris (pH 8.0) with 0.1% Triton X-100 and 20 mM EDTA and centrifuged at 20,000× g for 40 min at 4° C. For determination of DNA fragments lost in culture media, an aliquot of media was adjusted to a final concentration of 25 mM EDTA and centrifuged as described above. […] Fluorescence was detected by luminescent spectrometer using excitation 365 nm and emission 460 mn. DNA values were calculated using a standard curve obtained from the measurement of calf thymus DNA fluorescence.

The subject of another data set is caspase 3. Description: Caspase 3-like activity (DEVD-AFC) in LA-N-5 cells. Format: cell-based, human. Particulars: LY-294002 30 μM, C2 ceramide 25 μM. The procedure: Cells treated with drug or vehicle were harvested, washed with PBS and cell pellets lysed in 25 mM Hepes (pH 7.4), containing 2 mM dithiothreitol (DTT), 5 mM EDTA and […] digitonin. After centrifugation at 6,000 rpm for 10 min to remove cell debris and unruptured cells, an aliquot of the supernatant was added to a reaction buffer consisting of 25 mM Hepes (pH 7.4), 2 mM DTT, 5 mM EDTA, […] digitonin and 2.5 μg/ml DEVD-AFC. After 1 h incubation, the hydrolysis of substrate was quantified by fluorometry at excitation 400 mn and emission 505 nm. The blank reaction was done in the absence of cell lysate. Enzyme activity was expressed as the amount of fluorescence produced per mg protein/h.

Data set [1] has as its system LA-N-5 human neuroblastoma cells. The experiment in a line: Cell viability / cell death by MTT assay. Format: cell-based.
Description: Cells were plated in 24-well culture plates containing 500 μl media. After drug treatment, 50 μl MTT (5 mg/ml in PBS) was added and incubated for 20 min at 37° C. An aliquot of 500 μl of 10% sodium dodecyl sulfate in 0.01 N HCl was added. After incubating overnight, the absorbance at 570 nm was determined by spectrophotometry. Cell viability was calculated as percent cell survival by dividing absorbance [treatment-blank] by absorbance [control-blank], where treatment is the reading for the treated cells, control is for vehicle-treated cells and blank is for MTT added to the media without cells.
LA-N-5 human neuroblastoma cells were grown in DMEM supplemented with 10% fetal bovine serum and 1% gentamicin. […] Cell death was measured by the MTT method (Cho et al., 2000a; Cho et al., 2000b; Cho et al., 2000c).
The test system of another data set is Ras. The experiment in a line: Ras activation: guanine nucleotide binding and membrane association. The class given is cell-based, human. As to conditions: C2 ceramide 30 μM. The procedure:
(§1) Cells were harvested in a lysis buffer containing 10 mM Tris (pH 7.4), 1 mM EGTA, 1 mM EDTA, 1 mM DTT, 25 mM NaF, 2 mM MgCl2 and 10 μg/ml aprotinin, leupeptin and pepstatin. For subcellular fractionation, the postnuclear cell extract was centrifuged at 100,000× g for 45 min to obtain a cytosolic fraction and the pellet was washed and resuspended in a lysis buffer to obtain a membrane fraction. Whole cell lysate (for caspase-3 and pFLAG-PPT1) or fractionated proteins (for p21Ras and GAP-43) were resolved by 10%, 12% or 15% of SDS-PAGE for GAP-43, caspase-3 and pFLAG-PPT1, or Ras, respectively. For immunoblotting with anti-Akt antibodies, cells were lysed in RIPA buffer consisting of 50 mM Tris (pH 7.4), 150 MM NaCl, 1 mM EGTA, 1% Nonidet P-40, 0.25% sodium deoxycholate, 1 mM NaF and protease inhibitors. After lysis on ice for 1 h, cell debris was removed by centrifugation at 3,000 rpm for 5 min and an equal amount of postnuclear cell extract loaded on 8.5% SDS-PAGE. Resolved proteins were transferred to membrane overnight, blots incubated with a blocking solution for 1 h, incubated with appropriate primary and secondary antibodies and the signals detected by ECL.
Cells (10×10^6) were washed and incubated with 0.8 mCi/ml ^32Pi for 4 h in phosphate-free DMEM. […] Cell lysate was immunoprecipitated with monoclonal anti-Ras and bound nucleotides eluted with 1 mM EDTA/25 μM GDP and GTP were analyzed by TLC using 0.75 M KH2PO4 (pH 3.5). After autoradiography, the radioactive spots corresponding to GDP and GTP were counted.
p21^Ras is a key regulator in the signaling pathways involved in variety of events such as cell proliferation, transcription and apoptosis. […] Therefore, the subcellular localization of Ras protein was analyzed after C2-ceramide treatment. Cells were treated with C2 ceramide (30 μM), harvested at 10 min and 60 min and the membrane fraction (100,000× g pellet) analyzed by immunoblotting.

The target of the next data set is T1, PPT1 (Homo sapiens, UniProt P50897).
T1 sequence (P50897 28-306): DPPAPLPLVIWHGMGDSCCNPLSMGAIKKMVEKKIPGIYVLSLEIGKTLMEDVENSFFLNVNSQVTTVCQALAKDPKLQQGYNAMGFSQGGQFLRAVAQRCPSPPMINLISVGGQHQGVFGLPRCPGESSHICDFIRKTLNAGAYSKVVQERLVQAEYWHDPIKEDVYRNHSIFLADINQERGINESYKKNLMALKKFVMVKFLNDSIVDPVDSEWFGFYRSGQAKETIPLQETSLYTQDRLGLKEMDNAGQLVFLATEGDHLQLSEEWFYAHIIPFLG
Description: In vitro PPT1 activity assay, [14C]palmitoyl peptide substrates, cell extract. As to conditions: read-out: inhibition in an in vitro assay (PPT).

The test system of data set [2] is COS cells and embryonic neuron primary cultures.
The test system of a further data set is Akt. Description: Akt phosphorylation immunoblot. Format: cell-based, human. Particulars: insulin 5 min; LY294002 pretreatment; vector-transfected cells. The procedure: as §1, with “After lysis on ice for 1 h, cell debris was removed by centrifugation at 3,000 rpm for 5 min and an equal amount of postnuclear cell extract loaded on 8.5% SDS-PAGE.” left out
To further investigate the downstream pathway by which PPT1 exerts protection against apoptosis, the activation of Akt was examined in control and PPT1 overexpressing cells. […] Therefore, the activation of Akt was analyzed by immunoblotting the cell extracts with an antibody specific to phosphorylated Akt (Ser473). […]

Description for PPT1: Incubations were performed for 20 min at 37° C. and reactions terminated by addition of 1 ml of chloroform/methanol/2N HCl (2:1:0.06, v/v). After the centrifugation, organic phase was analyzed by HPTLC using n-butanol/pyridine/acetic acid/water (45:30:9:36, v/v) and [14C] palmitate release was quantified.
The peptide sequence, AcGCVKIKK (a palmitoylation site in K-Ras), was modified by substituting the SH group of cysteine with NH2 to generate diamino propionic acid, which was then acylated with palmitate (AcG-palmitoyl diamino propionate-VKIKK). […] In another set of experiments, the unmodified peptide itself (AcGCVKIKK) was used as a control to exclude the possibility of a nonspecific effect of the sequence on PPT activity.
In brief, the cell sonicate was incubated in the assay mixture containing 50 mM sodium citrate (pH 4.0) and IRY([^4C]palmitoylated)CWLRR octapeptide (2,000-4,000 cpm) for 20 min at 37° C. For the pH profile of PPT1 activity, 50 mM sodium citrate (pH 5 or 6) or 50 mM Tris-HCl (pH 7.4) was used with other conditions remaining the same. After addition of 1 ml of chloroform/methanol/2N HCl (2:1:0.06, by volume) and centrifugation, the organic phase was dried, reconstituted sample analyzed by HPTLC using n-butanol/pyridine/acetic acid/water (45:30:9:36, by volume) and the radioactive spot corresponding to [^14C] palmitate was counted.
PPT1 activity was measured as described above. In brief, the cell sonicate was incubated in the assay mixture (50 mM sodium citrate (pH 4.0) for [^14C]palmitoylated [sequence] Po peptide substrate (3,000-4,000 cpm) or 50 mM Tris (pH 7.4) for [^14C]palmitoylated MLCCMRR GAP43 peptide substrate) for 20 min at 37° C. After organic extraction, samples were analyzed by HPTLC using n-butanol/pyridine/acetic acid/water (45:30:9:36, by volume) and the radioactive spot corresponding to [^14C] palmitate was counted.

In the case of `CCCCCCCCCCCCC/C=C/[C@@H](O)[C@H](CO)NC(C)=O` [C2 ceramide], the DNA fragmentation entry in the data set on LA-N-5 cells was “increase in DNA fragmentation”. Besides, the “activation of caspase 3” value with caspase 3 is “time-dependent activation of caspase 3”. Moreover, in data set [1] (30 μM C2-ceramide alone, 6 h), the “death of cells (MTT)” value is “about 10%”. Besides, the “cell death (MTT assay)” value in data set [1] (LY-294002 30 μM, C2 ceramide 25 μM, 24 hrs) is on record as “about 50%”. Besides, the “GTP/(GDP+GTP) ratio increase over control” value is 33% in the data set with Ras (10 min) and 85% in the data set on Ras (60 min). Further, in the data set on Ras (10 min and 60 min), the “membrane-association of Ras” value is given as “time-dependent increase in membrane-association of Ras”.
Take `CCCCCCCCCCCCCCCC(=O)NC[C@H](NC(=O)CNC(C)=O)C(=O)N[C@H](C(=O)N[C@@H](CCCCN)C(=O)N[C@H](C(=O)N[C@@H](CCCCN)C(=O)N[C@@H](CCCCN)C(N)=O)[C@@H](C)CC)C(C)C` [DAP1, AcG-palmitoyl diamino propionate-VKIKK] (Ac-G[Dap](Palmitoyl)VKIKK-NH2): in the data set with non-dividing cells, the “toxicity to non-dividing cells” value was “does not appear to be toxic”. The inhibition at 20 µM on PPT1 is 85%. Besides, the “effect on COS cells and embryonic neuron primary cultures” value in data set [2] was “much less effect”.
In the case of “insulin: growth factor used as positive control for Akt activation”, the “phosphorylation of Akt (Ser473)” value in the data set on Akt is on record as “induced significant phosphorylation of Akt”.
